Test results: patent US8137705B2 (priority 2005, dated 2012)
Entries after “also recorded” stand apart in the source; their conditions may differ.

System: E. coli O157:H7
Test: E. coli O157:H7 counts in water with rumen content treated with ozone
Type: cell-based
Details: for E. coli O157:H7 (log10 cfu/ml) at min: 0: 0 min; for E. coli O157:H7 (log10 cfu/ml) at min: 1: 1 min; for E. coli O157:H7 (log10 cfu/ml) at min: 2: 2 min; for E. coli O157:H7 (log10 cfu/ml) at min: 5: 5 min; for E. coli O157:H7 (log10 cfu/ml) at min: 10: 10 min; for E. coli O157:H7 (log10 cfu/ml) at min: 20: 20 min
Procedure: Ozone was produced by an laboratory scale ozone generator (Model H-50, Hess Machine International, Ephrata, Pa.) equipped with an oxygen concentrator (Model AS-12, AirSep, Buffalo, N.Y.) and ozone concentrations (ppm) were measured by the indigo calorimeter method. Ozonated (22-24 ppm at 5° C.) water was mixed with rumen content at ratios of 100:1, 50:1, 25:1, 10:1, and 5:1. MilliQ water (Milli-Q Synthesis A10, Millipore Corp. Brillerica, Mass.) was used as the control. One ml of a mixture of 5 strains of E. coli O157:H7 (10^8 cfu) was mixed with 199 ml of the ozonated water with rumen content at 5° C. and sampled from 0 to 20 min. At each sampling time, 1 ml was removed, and immediately mixed with 9 ml of neutralizing buffer and serially (1:10) diluted and a volume of 0.1 ml from each dilution tube was plated on SMA-NA and TSA-NA plates in duplicate. Plates were incubated at 37° C. for 24 h. Presumptive E. coli O157:H7 colonies were counted and confirmed according to the method described above. All studies were done in duplicate.

[1] = 22-24 ppm ozone, Ozonated water only (no rumen content), 5° C.
[2] = 22-24 ppm ozone, water:rumen content 20:1, 5° C.
[3] = 22-24 ppm ozone, water:rumen content 50:1, 5° C.
[4] = 22-24 ppm ozone, water:rumen content 100:1, 5° C.
[5] = 22-24 ppm ozone, water:rumen content 200:1, 5° C.

## O=[O+][O-] [ozone]
22-24 ppm ozone, 5° C., water with no rumen content, direct plating
  killing of 10^6-10^7 E. coli O157:H7/ml: undetectable level
22-24 ppm ozone, 50 parts water to 1 part rumen content
  E. coli O157:H7 inactivation: Little to no E. coli O157:H7 inactivation
22-24 ppm ozone, 100 parts water to 1 part rumen content or more
  effect of rumen content on antimicrobial activity of ozone: neutralized; also recorded: greatly decreased the antimicrobial activity
[1]
  E. coli O157:H7 (log10 cfu/ml) at min: 0: <1.7 log10 cfu/ml
  E. coli O157:H7 (log10 cfu/ml) at min: 1: <1.7 log10 cfu/ml
  E. coli O157:H7 (log10 cfu/ml) at min: 2: <1.7 log10 cfu/ml
  E. coli O157:H7 (log10 cfu/ml) at min: 5: <1.7 log10 cfu/ml
  E. coli O157:H7 (log10 cfu/ml) at min: 10: <1.7 log10 cfu/ml
  E. coli O157:H7 (log10 cfu/ml) at min: 20: <1.7 log10 cfu/ml
[2]
  E. coli O157:H7 (log10 cfu/ml) at min: 0: 5.6 log10 cfu/ml
  E. coli O157:H7 (log10 cfu/ml) at min: 1: 5.2 log10 cfu/ml
  E. coli O157:H7 (log10 cfu/ml) at min: 2: 5.1 log10 cfu/ml
  E. coli O157:H7 (log10 cfu/ml) at min: 5: 5.1 log10 cfu/ml
  E. coli O157:H7 (log10 cfu/ml) at min: 10: 5.4 log10 cfu/ml
  E. coli O157:H7 (log10 cfu/ml) at min: 20: 5.2 log10 cfu/ml
[3]
  E. coli O157:H7 (log10 cfu/ml) at min: 0: 6.2 log10 cfu/ml
  E. coli O157:H7 (log10 cfu/ml) at min: 1: 6.2 log10 cfu/ml
  E. coli O157:H7 (log10 cfu/ml) at min: 2: 6.4 log10 cfu/ml
  E. coli O157:H7 (log10 cfu/ml) at min: 5: 6.4 log10 cfu/ml
  E. coli O157:H7 (log10 cfu/ml) at min: 10: 6.5 log10 cfu/ml
  E. coli O157:H7 (log10 cfu/ml) at min: 20: 6.3 log10 cfu/ml
[4]
  E. coli O157:H7 (log10 cfu/ml) at min: 0: 5.2 log10 cfu/ml
  E. coli O157:H7 (log10 cfu/ml) at min: 1: 5.4 log10 cfu/ml
  E. coli O157:H7 (log10 cfu/ml) at min: 2: 5.5 log10 cfu/ml
  E. coli O157:H7 (log10 cfu/ml) at min: 5: 5.2 log10 cfu/ml
  E. coli O157:H7 (log10 cfu/ml) at min: 10: 4.5 log10 cfu/ml
  E. coli O157:H7 (log10 cfu/ml) at min: 20: 4.8 log10 cfu/ml
[5]
  E. coli O157:H7 (log10 cfu/ml) at min: 0: <1.7 log10 cfu/ml
  E. coli O157:H7 (log10 cfu/ml) at min: 1: <1.7 log10 cfu/ml
  E. coli O157:H7 (log10 cfu/ml) at min: 2: <1.7 log10 cfu/ml
  E. coli O157:H7 (log10 cfu/ml) at min: 5: <1.7 log10 cfu/ml
  E. coli O157:H7 (log10 cfu/ml) at min: 10: <1.7 log10 cfu/ml
  E. coli O157:H7 (log10 cfu/ml) at min: 20: <1.7 log10 cfu/ml
Ozone 22-24 ppm at 5° C. or 8-12 ppm at 21° C., rumen content at ratios of 50:1 and higher
  effect on killing E. coli O157:H7: minimal effect
